{"source": "patent US9581587B2", "about": "“Sperm staining and sorting methods” (INGURAN, LLC, priority 2011, dated 2017)", "key": {"sperm [1]": {"test_system": "sperm", "experiment": "Split quality, split enhancing dyes at various concentrations and incubation times (Example 10)", "type": "cell-based, bulls", "conditions": "for split enhancing effect compared to control: 15, 45, 125 μM, 30-75 minutes, averaged over 8 bulls; for peak to valley ratio, Average 8 bulls: 25 μM yellow food dye No. 6", "method": "(§1) Eight bulls were collected, including 4 Jersey bulls, 3 Holstein bulls and one mixed dairy-breed. The ejaculates were collected at concentrations ranging from 1700×10^6 sperm/ml to 1100×10^6 sperm/ml and all had progressive motility of a least 60%.\n(§2) Sperm from each bull was extended to 160 million per ml with a first buffer, (TALP described in table 1 at a pH 7.4) and stained with 64 μM (164/2 mL) Hoechst 33342 at 34° C. Additionally, Phenol Red, Red Food Dye No. 2, Red Food Dye No. 3, and Red Food Dye No. 4, were each tested as split enhancing dyes in the first buffer at concentrations of 15 μM, 45 μM and 125 μM. For each bull, each concentration of each dye was incubated for periods of 30 minutes, 45 minutes, 60 minutes, and 75 minutes were utilized before a second buffer with an additional dye was applied.\nEach sample was then extended in an equal volume of a second buffer which comprised a 5.5 pH modified TALP having 25 μM yellow food dye No. 6 (acting as a dead quenching dye) in addition to the split enhancing dye provided in the first buffer. The second buffer was applied to every sample at 30 minutes, 45 minutes, 60 minutes, and 75 minutes. A control was additionally taken without any split enhancing dye for every bull at every time interval.\n(§3) Sorting was performed on a MoFlo SX (Beckman Coulter, USA) in substantially the same manner described in Example 5. After calibration, screen shots of sorting histograms were taken and split quality was measured by peak to valley ratios in the same way described in Example 5 with reference to FIG. 4 and the resulting data, averaged over all 8 bulls, is found in Tables 18-21. Additionally, screen shots of bivariate plots were taken to measure the added dead quenching capacity of the mixed dead quenching and split enhancing dyes."}, "[2]": {"test_system": "membrane compromised sperm", "experiment": "Added dead quenching capacity from bivariate plots (Example 10, FIG. 8)", "type": "cell-based, bulls", "conditions": "with 25 μM yellow food dye No. 6, red food dye No. 4 at highest tested concentration", "method": "as §1\nas §2, with “applied. […]” for “applied.”\nas §3, with “Additionally, screen shots of bivariate plots were taken to measure the added dead quenching capacity of the mixed dead quenching and split enhancing dyes.” left out"}, "sperm [3]": {"test_system": "sperm", "experiment": "Split quality, red food dye No. 3 as added split enhancing dye (Example 9)", "type": "cell-based, bull", "conditions": "with yellow food dye No. 6 or red food dye No. 40 as dead quenching dye", "method": "A single bull was collected for the Example 9 in the same way described in Example 5. […] The second buffer was additionally treated with concentrations of 25, 50, 100, 150, 300, or 600 μM of red food dye No. 3, as indicated in Table 6. Sorting was performed on a MoFlo SX (Beckman Coulter, USA) in substantially the same manner described in Example 6. After calibration, screen shots of sorting histograms were taken and the split quality was measured in terms of peak to valley ratios in the same way described in Example 5 with reference to FIG. 4 and the resulting data is found in Table 17."}, "[4]": {"test_system": "membrane compromised sperm", "experiment": "Dead gate intensity, yellow 5 and phenol red at higher concentrations (Example 6)", "type": "cell-based, Jersey bull", "conditions": "for Intensity: Hoechst 12 μL/2 mL", "method": "(§4) A single Jersey bull was collected at an initial sperm concentration 1810×10^6 sperm/ml in a volume of 3.9 ml. The progressive motility of the sperm was 65% with normal morphologies greater than 50%.\n(§5) Sperm were suspended at 320 million per mL in 30 mL a first buffer, (TALP described in table 1 at a pH 7.4) with 12 μL of Hoechst 33342 per 2 mL (48 μM) of stain and incubated for 1 hour at 34° C. Stained sperm was then placed as 1 mL aliquots in sample tubes and a 1 mL volume of the appropriate TALP was added. The same second buffer was used as example 1, namely a modified 5.60 pH TALP.\n(§6) Each of the stained samples was sorted on a MoFlo SX (Beckman Coulter, USA) as described in Example 6. Screen shots were taken and the dead gate intensity and the split quality were measured in the same way described in Example 1 and recorded in TABLE 14."}, "[5]": {"test_system": "membrane compromised sperm", "experiment": "Dead gate intensity divided by live gate intensity, flow cytometer (Example 5)", "type": "cell-based", "method": "(§7) A single Jersey bull was collected at an initial sperm concentration 1900×10^6 sperm/ml in a volume of 5 ml. The progressive motility of the sperm was 65% with normal morphologies greater than 65%.\n(§8) The entire ejaculate of sperm was suspended in first staining buffer, specifically a 7.4 pH TALP described in TABLE 1, to a concentration of 160×10^6 sperm per mL (determined on nucleocounter) and divided into three aliquots of about 20 mL into 50 mL Falcon tubes and pre-warmed for 10 minutes at 34° C. The DNA selective fluorescent dye, Hoechst 33342, was added and samples were held at 34° C. for 60 minutes. 3 different Hoechst 33342 Stain Levels were used=12 μL, 14 μL and 16 μL per 2 mL (effective concentrations of 48 μM, 56 μM, 64 μM).\n(§9) Preparation of the second buffer including the dead quenching dye—A 2 L bag of TALP, described in TABLE 1, was adjusted to pH 5.60 using HCl and then sterile filtered. […] For each of the four dyes tested (R40-red food dye No. 40, Y5—yellow food dye No. 5, Y6—yellow food dye No. 6 and PR—phenol red), an appropriate number of milligrams of each powder was placed in a Erlenmeyer Flask and then an exact amount of TALP pH 5.60 was added to create a 250 μM concentration of the dye. The result was a working TALP stock for each dye with a 100% (125 μM) relative amount of dye 50% relative (62.5 μM) and 20% relative (25 μM) solutions were made by dilution of 100% by TALP pH 5.60.\n(§10) Single tubes of stained sperm at each of the three Hoechst 33342 concentrations were treated with TALP pH 5.60 which had no dead quenching dye present. Single tubes using Vitamin B12 (red colored chemical) with stock concentration of 15 μM (12% relative) were tested.\n(§11) After this “bulk” staining for 60 minutes, 1 mL aliquots of stained sperm were combined with 1 mL aliquots of the second buffer including the dead quenching dyes. Samples sat for approximately 30 minutes at room temperature before being analyzed on a MoFlo SX (Beckman Coulter, USA) sperm sorting flow cytometer. Event rates were held as close to 13,000 as possible at the point of data acquisition.\n(§12) The total number of individual treatments was 42 tubes, each containing 2 mL of stained sample. The alignment of the sorter was established using nuclei and confirmed with live sample from the 50% Red 40 series. Once good alignment was established, each tube was placed on the sorter long enough to establish a stabile dead gate population (about 30 seconds) and then a screenshot was taken and saved as a .jpeg image. This approach of rapidly documenting each sample is used to assure the most consistent alignment between all samples. Realignment of sorter will not cause differences in the intensities of live and dead gate populations but will cause differences in split quality.\n(§13) FIG. 4 illustrates an example histogram. The ratio of dead gate intensity divided by live gate intensity is created by dividing the distance “A” by the distance “B” shown as a percentage. Lower values mean higher levels of quenching. The ratio of peak height divided by valley height is created by dividing the distance “C” by the distance “D”. A value of 1.00 means “no split” while higher values mean “better splits”."}, "sperm [6]": {"test_system": "sperm", "experiment": "Split quality, height of peak divided by height of valley (Example 5)", "type": "cell-based, Jersey bull", "conditions": "Hoechst 16 μL/2 mL", "method": "as §7, §8, §9, §10, §11, §12, §13"}, "sperm [7]": {"test_system": "sperm", "experiment": "Split quality PV (Example 6)", "type": "cell-based, Jersey bull", "conditions": "Hoechst 12 μL/2 mL, resulting pH 6.70", "method": "as §4, §5, §6"}, "sperm [8]": {"test_system": "sperm", "conditions": "as dead quenching dye; cited from earlier work"}, "[9]": {"conditions": "split enhancing dye 125 μM, 30 Min"}}, "data": [{"molecule": "Cc1c(C(=O)O)c(O)cc2c1C(=O)c1c(O)c(C3O[C@H](CO)[C@@H](O)[C@H](O)[C@H]3O)c(O)c(O)c1C2=O", "note": "(stereo in doubt) [Red 4, carmine]", "values": [{"measurement": "split enhancing effect compared to control", "setting": "sperm [1]", "result": "provides distinct improvements at all concentrations and at all times"}, {"measurement": "dead quenching capacity in combination with dead quenching dye", "setting": "[2]", "result": "significant increase in quenching the dead subpopulation"}]}, {"molecule": "O=S(=O)([O-])c1ccc2c(N=Nc3ccc(S(=O)(=O)[O-])c4ccccc34)c(O)c(S(=O)(=O)[O-])cc2c1.[Na+].[Na+].[Na+]", "note": "[Red 2]", "values": [{"measurement": "split enhancing effect compared to control", "setting": "sperm [1]", "result": "did not provide a split enhancing, or noise reducing effect"}, {"measurement": "peak to valley ratio, Average 8 bulls", "setting": "sperm [1]; split enhancing dye 45 μM, 30 Min", "result": 1.00}, {"measurement": "peak to valley ratio, Average 8 bulls", "setting": "sperm [1]; [9]", "result": 1.00}, {"measurement": "peak to valley ratio, Average 8 bulls", "setting": "sperm [1]; split enhancing dye 125 μM, 45 Min", "result": 1.00}, {"measurement": "peak to valley ratio, Average 8 bulls", "setting": "sperm [1]; split enhancing dye 125 μM, 60 Min", "result": 1.00}, {"measurement": "peak to valley ratio, Average 8 bulls", "setting": "sperm [1]; split enhancing dye 125 μM, 75 Min", "result": 1.00}, {"measurement": "dead quenching capacity in combination with dead quenching dye", "setting": "[2]", "result": "strong dead quenching capacity"}]}, {"molecule": "O=C(O)c1ccccc1-c1c2cc(I)c(=O)c(I)c-2oc2c(I)c(O)c(I)cc12", "note": "[Red 3, 2-(6-Hydroxy-2,4,5,7-tetraiodo-3-oxo-xanthen-9-yl)benzoic acid]", "values": [{"measurement": "effect of increasing concentration on split quality", "setting": "sperm [3]", "result": "improved the split quality up to the concentration of 300 μM"}, {"measurement": "split enhancing effect compared to control", "setting": "sperm [1]", "result": "provided initial split enhancements at 15 μM and 45 μM"}, {"measurement": "peak to valley ratio, Average 8 bulls", "setting": "sperm [1]; [9]", "result": 1.00}]}, {"molecule": "O=C([O-])C1=NN(c2ccc(S(=O)(=O)[O-])cc2)C(=O)/C1=N/Nc1ccc(S(=O)(=O)[O-])cc1.[Na+].[Na+].[Na+]", "note": "[Yellow 5, Trisodium (4E)-5-oxo-1-(4-sulfonatophenyl)-4-[(4-sulfonatophenyl)hydrazono]-3-pyrazolecarboxylate]", "values": [{"measurement": "amount of dye needed for a similar dead gate intensity ratio as red food dye No. 40 and yellow food dye No. 6", "setting": "[4]", "result": "about five"}, {"measurement": "Intensity", "setting": "[4]; dye 125 μM, resulting pH 6.70", "result": 63, "unit": "%"}, {"measurement": "Intensity", "setting": "[4]; dye 250 μM, resulting pH 6.70", "result": 48, "unit": "%"}, {"measurement": "Intensity", "setting": "[4]; dye 500 μM, resulting pH 6.70", "result": 43, "unit": "%"}, {"measurement": "Intensity", "setting": "[4]; dye 750 μM, resulting pH 6.70", "result": "<30", "unit": "%"}, {"measurement": "Intensity", "setting": "[4]; dye 875 μM, resulting pH 6.70", "result": "<30", "unit": "%"}, {"measurement": "Intensity", "setting": "[4]; dye 1250 μM, second buffer pH 5.60, resulting pH 6.70", "result": "<30", "unit": "%"}, {"measurement": "Dead Intensity", "setting": "[5]; dye 25 μM, Average over Hoechst levels", "result": 90, "unit": "%"}, {"measurement": "Dead Intensity", "setting": "[5]; dye 25 μM, Hoechst 12 μL/2 mL", "result": 90, "unit": "%"}, {"measurement": "Dead Intensity", "setting": "[5]; dye 25 μM, Hoechst 14 μL/2 mL", "result": 90, "unit": "%"}, {"measurement": "Dead Intensity", "setting": "[5]; dye 25 μM, Hoechst 16 μL/2 mL", "result": 90, "unit": "%"}, {"measurement": "Dead Intensity", "setting": "[5]; dye 62.5 μM, Average over Hoechst levels", "result": 74, "unit": "%"}, {"measurement": "Dead Intensity", "setting": "[5]; dye 62.5 μM, Hoechst 12 μL/2 mL", "result": 74, "unit": "%"}, {"measurement": "Dead Intensity", "setting": "[5]; dye 62.5 μM, Hoechst 14 μL/2 mL", "result": 77, "unit": "%"}, {"measurement": "Dead Intensity", "setting": "[5]; dye 62.5 μM, Hoechst 16 μL/2 mL", "result": 70, "unit": "%"}, {"measurement": "Dead Intensity", "setting": "[5]; dye 125 μM, Average over Hoechst levels", "result": 57, "unit": "%"}, {"measurement": "Dead Intensity", "setting": "[5]; dye 125 μM, Hoechst 12 μL/2 mL", "result": 54, "unit": "%"}, {"measurement": "Dead Intensity", "setting": "[5]; dye 125 μM, Hoechst 14 μL/2 mL", "result": 63, "unit": "%"}, {"measurement": "Dead Intensity", "setting": "[5]; dye 125 μM, Hoechst 16 μL/2 mL", "result": 55, "unit": "%"}, {"measurement": "ability to create a dead gate population (ordering of the four dyes)", "setting": "[5]; from dead and live intensity data of Table 13", "result": "better quenching properties than phenol red"}, {"measurement": "Height of Peak/Height of Valley", "setting": "sperm [6]; dye 25 μM", "result": 1.00}, {"measurement": "Height of Peak/Height of Valley", "setting": "sperm [6]; dye 62.5 μM", "result": 1.00}, {"measurement": "PV", "setting": "sperm [7]; dye 125 μM", "result": 1.00}, {"measurement": "PV", "setting": "sperm [7]; dye 250 μM", "result": 1.00}, {"measurement": "PV", "setting": "sperm [7]; dye 500 μM", "result": 1.00}, {"measurement": "PV", "setting": "sperm [7]; dye 750 μM", "result": 1.00}, {"measurement": "PV", "setting": "sperm [7]; dye 875 μM", "result": 1.00}, {"measurement": "PV", "setting": "sperm [7]; dye 1250 μM", "result": 1.00}]}, {"molecule": "CC[N+](C)(CC)CCC[n+]1c(-c2ccccc2)c2cc(N)ccc2c2ccc(N)cc21.[I-].[I-]", "note": "[propidium iodine]", "values": [{"measurement": "toxicity to sperm", "setting": "sperm [8]", "result": "toxic to sperm"}]}]}
